2 compounds from article PMC5121239, “Muscle-Type Nicotinic Receptor Modulation by 2,6-Dimethylaniline, a Molecule Resembling the Hydrophobic Moiety of Lidocaine” (Frontiers in Molecular Neuroscience, 2016) can be followed below.

Assay [1] addresses T1, muscle-type nicotinic acetylcholine receptor (nAChR) (Torpedo marmorata, UniProt P02711+Q6S3H8+Q6S3H9+Q6S3I0).
T1 construct: gene CHRNA1; purified electroplax nAChR reconstituted in asolectin lipids and microtransplanted to Xenopus oocytes; with nAChR beta, gamma and delta subunits (alpha1, alpha2, beta, gamma, delta heteropentamer)
Kind of assay: two-electrode voltage clamp in Xenopus oocytes, agonist concentration-response. The format is cell-based.

Assay [2] addresses T1, muscle-type nicotinic acetylcholine receptor (nAChR). Kind of assay: two-electrode voltage clamp in Xenopus oocytes, inhibition of current evoked by […] ACh. The format is cell-based.

T1 sequence (P02711 25-461): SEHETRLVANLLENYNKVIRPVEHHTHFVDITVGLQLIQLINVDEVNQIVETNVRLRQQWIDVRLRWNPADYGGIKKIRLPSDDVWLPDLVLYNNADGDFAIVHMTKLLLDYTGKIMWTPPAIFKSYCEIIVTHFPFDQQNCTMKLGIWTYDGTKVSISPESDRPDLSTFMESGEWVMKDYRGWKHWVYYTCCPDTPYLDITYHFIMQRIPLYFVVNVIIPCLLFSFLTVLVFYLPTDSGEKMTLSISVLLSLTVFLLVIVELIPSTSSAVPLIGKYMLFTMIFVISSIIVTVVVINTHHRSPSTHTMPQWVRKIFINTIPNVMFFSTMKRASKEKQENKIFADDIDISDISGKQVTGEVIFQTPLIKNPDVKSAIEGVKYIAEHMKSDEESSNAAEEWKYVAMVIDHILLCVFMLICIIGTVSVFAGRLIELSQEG
T1 sequence (Q6S3I0 25-493): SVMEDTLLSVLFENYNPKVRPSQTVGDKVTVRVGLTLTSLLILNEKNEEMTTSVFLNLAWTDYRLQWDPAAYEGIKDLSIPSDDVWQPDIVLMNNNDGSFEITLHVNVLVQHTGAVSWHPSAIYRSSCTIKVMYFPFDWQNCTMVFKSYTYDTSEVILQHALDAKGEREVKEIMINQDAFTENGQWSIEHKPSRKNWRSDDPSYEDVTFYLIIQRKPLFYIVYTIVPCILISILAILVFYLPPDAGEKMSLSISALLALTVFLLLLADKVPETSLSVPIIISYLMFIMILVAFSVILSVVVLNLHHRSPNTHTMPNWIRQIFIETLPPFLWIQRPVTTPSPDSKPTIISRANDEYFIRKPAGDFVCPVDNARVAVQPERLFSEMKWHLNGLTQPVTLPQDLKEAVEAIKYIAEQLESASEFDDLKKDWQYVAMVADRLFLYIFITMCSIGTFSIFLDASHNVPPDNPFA
T1 sequence (Q6S3H9 18-505): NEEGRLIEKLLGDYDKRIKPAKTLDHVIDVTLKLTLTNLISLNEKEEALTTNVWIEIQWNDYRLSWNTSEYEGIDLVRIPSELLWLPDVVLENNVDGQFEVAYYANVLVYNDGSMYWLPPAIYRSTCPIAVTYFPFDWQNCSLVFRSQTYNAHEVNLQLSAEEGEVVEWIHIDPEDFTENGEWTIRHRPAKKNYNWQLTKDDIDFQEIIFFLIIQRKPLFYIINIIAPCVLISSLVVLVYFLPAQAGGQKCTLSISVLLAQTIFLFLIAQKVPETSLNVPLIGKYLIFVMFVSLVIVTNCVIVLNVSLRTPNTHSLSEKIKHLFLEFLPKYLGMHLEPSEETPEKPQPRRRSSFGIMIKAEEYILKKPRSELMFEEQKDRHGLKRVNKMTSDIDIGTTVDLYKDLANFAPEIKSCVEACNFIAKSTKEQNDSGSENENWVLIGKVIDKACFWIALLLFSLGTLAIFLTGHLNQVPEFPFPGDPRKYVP
T1 sequence (Q6S3H8 22-522): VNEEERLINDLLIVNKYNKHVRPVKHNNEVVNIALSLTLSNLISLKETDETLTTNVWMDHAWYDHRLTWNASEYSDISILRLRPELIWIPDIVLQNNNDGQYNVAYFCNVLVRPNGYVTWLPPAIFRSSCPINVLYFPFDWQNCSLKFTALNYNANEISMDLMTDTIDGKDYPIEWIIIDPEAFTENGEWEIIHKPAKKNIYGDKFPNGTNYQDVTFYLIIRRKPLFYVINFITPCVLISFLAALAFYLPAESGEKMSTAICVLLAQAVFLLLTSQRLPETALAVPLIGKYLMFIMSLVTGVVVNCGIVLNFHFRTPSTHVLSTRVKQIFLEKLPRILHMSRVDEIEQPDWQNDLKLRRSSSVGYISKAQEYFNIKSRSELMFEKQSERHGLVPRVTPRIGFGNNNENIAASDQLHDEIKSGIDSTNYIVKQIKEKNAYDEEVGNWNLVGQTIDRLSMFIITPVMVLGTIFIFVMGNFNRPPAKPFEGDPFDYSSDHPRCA

In assay [1], `CC(=O)OCC[N+](C)(C)C` [ACh, acetylcholine] yielded a concentration giving a half-maximal response (EC50) of 29 µM.
The compound `Cc1cccc(C)c1N` [DMA, 2,6-dimethylaniline] had an IC50 in assay [2] of 2100 µM.
